# Assay results published in ChEMBL document CHEMBL4321815, “Discovery of an Extremely Potent Thiazine-Based β-Secretase Inhibitor with Reduced Cardiovascular and Liver Toxicity at a Low Projected Human Dose” (J Med Chem, 2019).
# pEC50, pIC50: −log10 of the molar value.
# Assays:
# [1] = AUC in Sprague-Dawley rat at 2.5 mg/kg, po by LC/MS/MS analysis; format: ADME, organism-based; settings: in vivo
# [2] = Oral bioavailability in Sprague-Dawley rat at 2.5 mg/kg by LC/MS/MS analysis; format: ADME, organism-based; settings: in vivo
# [3] = Metabolic stability in human hepatocytes at 2 uM incubated for 2 hr; format: ADME, cell-based, Hepatocyte; settings: read-out: Stability
# [4] = AUC in Beagle dog at 6 mg/kg/day, po administered for 2 weeks; format: ADME, organism-based, Canis lupus familiaris; settings: in vivo
# [5] = Half life in Cynomolgus monkey at 0.5 mg/kg, iv by LC/MS/MS analysis; format: ADME, organism-based, Macaca fascicularis; settings: in vivo
# [6] = Unbound CSF to plasma concentration ratio in Beagle dog at 0.08 to […], po measured up to 49 hrs; format: ADME, organism-based, Canis lupus familiaris; settings: CSF and plasma
# [7] = Fraction unbound in mouse plasma after 24 hrs by equilibrium dialysis based LC-MS/MS analysis; format: ADME, cell-free
# [8] = Metabolic stability in dog hepatocytes at 2 uM incubated for 2 hr; format: ADME, cell-based, Canis lupus familiaris, Hepatocyte; settings: read-out: Stability
# Cathepsin D = Cathepsin D (Homo sapiens, UniProt P07339); test: Inhibition of Cathepsin D (unknown origin)
# [9] = Tmax in Cynomolgus monkey at 2.5 mg/kg, po by LC/MS/MS analysis; format: ADME, organism-based, Macaca fascicularis; settings: in vivo
# [10] = Tmax in dog at 2.5 mg/kg, po; format: ADME, organism-based, Canis lupus familiaris; settings: in vivo
# [11] = Cmax in Cynomolgus monkey at 2.5 mg/kg, po by LC/MS/MS analysis; format: ADME, organism-based, Macaca fascicularis; set-up: dose 2.5 mg/kg, route oral; settings: in vivo
# [12] = AUC in mouse at 2.5 mg/kg, po; format: ADME, organism-based; settings: in vivo
# Canis familiaris [13] = test: In vivo inhibition of BACE1 in po dosed Beagle dog assessed as plasma level causing 50% reduction in amyloidbeta42 level in CSF administered as single dose measured after 4 to 49 hrs; format: functional, organism-based; settings: Canis lupus familiaris
# [14] = Clearance in Sprague-Dawley rat at 0.5 mg/kg, iv by LC/MS/MS analysis; format: ADME, organism-based; settings: in vivo
# [15] = Toxicity in po dosed Beagle dog assessed as induction of adverse effect administered for 2 weeks; format: organism-based, Canis lupus familiaris; settings: in vivo
# [16] = Oral bioavailability in mouse at 2.5 mg/kg; format: ADME, organism-based; settings: in vivo
# [17] = Cmax in dog at 2.5 mg/kg, po; format: ADME, organism-based, Canis lupus familiaris; set-up: dose 2.5 mg/kg, route oral; settings: in vivo
# [18] = Half life in mouse at 0.5 mg/kg, iv; format: ADME, organism-based; settings: in vivo
# [19] = Fraction unbound in rat plasma after 24 hrs by equilibrium dialysis based LC-MS/MS analysis; format: ADME, cell-free
# [20] = Cmax in mouse at 2.5 mg/kg, po; format: ADME, organism-based; set-up: dose 2.5 mg/kg, route oral; settings: in vivo
# [21] = Fraction unbound in monkey plasma after 24 hrs by equilibrium dialysis based LC-MS/MS analysis; format: ADME, cell-free, Macaca mulatta; settings: rhesus monkey
# [22] = AUC in Cynomolgus monkey at 2.5 mg/kg, po by LC/MS/MS analysis; format: ADME, organism-based, Macaca fascicularis; settings: in vivo
# [23] = Unbound brain-to-plasma concentration ratio in Sprague-Dawley rat at 0.5 mg/kg, iv after 30 mins by LC-MS/MS analysis; format: ADME, organism-based; settings: brain and plasma, read-out: K(p,uu,brain)
# [24] = Free drug level in Crl:CD1(ICR) mouse brain at 3 mg/kg, po at 6 hrs; format: ADME, organism-based; settings: in vivo
# Mus musculus = test: In vivo inhibition of BACE1 in Crl:CD1(ICR) mouse assessed as reduction in amyloidbeta level in brain at 3 mg/kg, po after 2 to 6 hrs by ELISA relative to control; format: functional
# [25] = Metabolic stability in rat hepatocytes at 2 uM incubated for 2 hr; format: ADME, cell-based, Hepatocyte; settings: read-out: Stability
# Canis familiaris [26] = test: In vivo inhibition of BACE1 in Beagle dog assessed as reduction in amyloidbeta42 level in CSF at 1.25 mg/kg, po administered as single dose measured after 4 to 49 hrs relative to control; format: functional; settings: Canis lupus familiaris
# [27] = Fraction unbound in mouse brain at 5 uM incubated for 5 hrs by HPLC-MS/MS analysis; format: ADME, tissue-based
# [28] = Tmax in mouse at 2.5 mg/kg, po; format: ADME, organism-based; settings: in vivo
# [29] = Volume of distribution at steady state in dog at 0.5 mg/kg, iv; format: ADME, organism-based, Canis lupus familiaris; settings: in vivo, read-out: Vdss
# Canis familiaris [30] = test: In vivo inhibition of BACE1 in po dosed Beagle dog assessed as reduction in amyloidbeta42 level in CSF measured after 4 to 49 hrs; format: functional, organism-based; settings: Canis lupus familiaris
# [31] = Cmax in Sprague-Dawley rat at 1 mg/kg, po by LC/MS/MS analysis; format: ADME, organism-based; set-up: dose 1 mg/kg, route oral; settings: in vivo
# Cathepsin D, sequence (P07339 65-162 limits assumed): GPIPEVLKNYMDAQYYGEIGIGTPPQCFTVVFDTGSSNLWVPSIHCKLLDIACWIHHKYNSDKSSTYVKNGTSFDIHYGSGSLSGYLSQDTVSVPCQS
# Cathepsin D, sequence (P07339 169-412 limits assumed): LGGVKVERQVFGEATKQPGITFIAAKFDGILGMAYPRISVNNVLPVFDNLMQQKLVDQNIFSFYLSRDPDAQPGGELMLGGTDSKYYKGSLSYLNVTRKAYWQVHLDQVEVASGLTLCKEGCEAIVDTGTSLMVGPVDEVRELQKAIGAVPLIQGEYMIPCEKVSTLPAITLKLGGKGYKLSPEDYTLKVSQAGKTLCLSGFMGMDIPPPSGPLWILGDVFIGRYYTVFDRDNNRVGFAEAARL
structure (smiles),measurement,setting,value
C[C@H]1SC(N)=N[C@](C)(c2cc(NC(=O)c3cnc(OCF)cn3)ccc2F)[C@H]1F,AUC,[1],566 ng·h/mL
same,bioavailability,[2],38%
same,"remaining at 2 h, 2 µM",[3],89%
same,AUC at 336 h,[4],41000 ng·h/mL
same,half-life,[5],4.9 h
same,Kp uu at 49 h,[6],0.77
same,fraction unbound at 24 h,[7],0.15
same,"remaining at 2 h, 2 µM",[8],90%
same,pIC50,Cathepsin D,≤ 4.00
same,Tmax,[9],3 h
same,Tmax,[10],1.8 h
same,Cmax,[11],54 ng/mL
same,AUC,[12],596 ng·h/mL
same,pEC50,Canis familiaris [13],7.68
same,clearance,[14],24.8 to 27 mL/min/kg
same,NOAEL at 336 h,[15],6 mg/kg/day
same,bioavailability,[16],58%
same,Cmax,[17],685 ng/mL
same,half-life,[18],3.2 h
same,fraction unbound at 24 h,[19],0.12
same,Cmax,[20],195 ng/mL
same,fraction unbound at 24 h,[21],0.12
same,AUC,[22],429 ng·h/mL
same,Kp uu at 0.5 h,[23],0.95
same,Drug uptake(free),[24],73 nM
same,inhibition in vivo at 3 mg/kg,Mus musculus,90%
same,"remaining at 2 h, 2 µM",[25],74%
same,inhibition in vivo at 1.25 mg/kg,Canis familiaris [26],80%
same,"fraction unbound at 5 h, 5 µM",[27],0.034
same,Tmax,[28],0.3 h
same,Vd,[29],2.8 L/kg
same,inhibition,Canis familiaris [30],Dose-dependent effect
same,Cmax,[31],38.4 ng/mL
